Laboratory results: patent US20260335294A1, “TREATING CONGENITAL DISORDERS OF GLYCOSYLATION” (Mayo Foundation for Medical Education and Research, priority 2022, published 2026)

Key:
pmm2 mutant zebrafish [1] = experiment: Metabolomic profiling of zebrafish treated with epalrestat; assay type: in vivo; settings: 5 dpf embryos, single dose 10 μM or 40 μM, 24 hours
Method: Animals were maintained according to standard protocols. The zebrafish strains were obtained from the Zebrafish International Resource Center (ZIRC, Eugene, OR). Pmm2sa10150 mutant zebrafish were established as described elsewhere (Klaver et al., JCI Insight, 6(24):e153474 (2021)).
10 embryos per sample were homogenized by sonication in extraction buffer (80% MeOH, IS). The metabolites were then precipitated at −80 °C overnight, after which the samples were centrifuged at 15,000 rpm, 20 minutes, 4 °C. Next, the supernatant was transferred to a fresh Eppendorf tube. The samples were centrifuged again at 15,000 rpm, 20 minutes, 4 °C to remove any leftover impurities and transferred to a fresh MS vial. Finally, the samples were analyzed by LC/MS.
Fibroblasts were plated in 6-well plates for LC/MS and T75 flasks for GC/MS analysis as described above. After 24 hours, medium was removed and cells washed with PBS. Then, DMEM containing 5.5 mM glucose, 2 mM glutamine, and 10% dialyzed FBS was added. Epalrestat was freshly prepared and fibroblasts were supplemented with 10 μM epalrestat daily. After 48 hours media was changed, and 48 hours after that, metabolites were extracted and measured by both LC/MS and GC/MS. Zebrafish embryos were genotyped at 2 days post fertilization (dpf), and were treated by adding the epalrestat (solubilized in DMSO) directly into the embryo media at 5 dpf. […]

pmm2 mutant zebrafish [2] = experiment: Viability of treated zebrafish; assay type: in vivo
PMM2-CDG patients = experiment: Clinical observation of lower body strength and speech; assay type: in vivo, human; settings: P7
Method: Two patients were started on epalrestat on single patient investigational new drug (IND) (P5 IRB: 19-010017; IND #145262; P6 Protocol PMM2-CDG-001/A). Epalrestat was initiated on the parents' own initiative in the third patient (P7). Two patients were in their second year of epalrestat treatment, while the third, was in the 3rd year of treatment. Physical, neurological, and biochemical examinations were performed in 3 PMM2-CDG patients at baseline, and at every three months after the start of the epalrestat treatment. Patients underwent NPCRS phenotype severity assessment and biological sampling at every visit. Epalrestat (Ono Pharmaceuticals, Osaka, Japan) was taken orally 3 times per day (TID) before meals in a divided dose, with dosage escalation throughout the treatment. The pharmacological profile of epalrestat was as described elsewhere (Ligezka et al, Ann. Neurol., 90(6):887-900 (2021)). The starting dosage in P5 and P6 was 0.8 mg/kg/day, while P7 was started on 0.5 mg/kg/day due to their young age. P7 dosage was increased to 0.8 mg/day after a month, once safety was established. […] Quantification of goal attainment levels is done on a 5-point scale ranging from −2 to +2, with 0 indicating the expected level of goal attainment. Three individual goals were established by each patient (parent) at baseline and the progress was annually assessed. […]

aldose reductase (AR) = settings: role: inhibitor; cited from earlier work

SMILES: CC(/C=C1\SC(=S)N(CC(=O)O)C1=O)=C\c1ccccc1 [epalrestat]
- GDP-mannose level (pmm2 mutant zebrafish [1]): increased
- polyol levels (pmm2 mutant zebrafish [1]): reduced
- viability, treated vs untreated (pmm2 mutant zebrafish [2]): no significant difference
- lower body strength and speech (PMM2-CDG patients): improvement in lower body strength and speech
- mode of inhibition of AR (aldose reductase (AR)): non-competitive inhibitor
